Data taken from patent US20230391842A1, “RETRO-INVERSO PEPTIDES” (Herantis Pharma OYJ, priority 2019, published 2023).
Positions of bridges follow the written chain, without caps; N, C: chain ends. Non-standard residues stand in square brackets, D forms with d. Residues, ends and D or L forms follow the SMILES beside them.

Key:
[1] = test system: unfolded protein response (UPR) pathway signaling in TH-positive neurons injured with MPP+; test: Dependence of neuroprotection in MPP+-injured mesencephalic neurons on UPR signaling (PERK / IRE1alpha inhibitors); assay type: cell-based, rat
Method: CDNF and MANF protect cells from ER stress-induced cell dysfunction or cell death, such as apoptosis by modulating cellular responses to ER stress. […] Binding of compounds to GRP78-NBD was assessed in a cell-free binding assay using purified recombinant GRP78-NBD and synthesized peptides. As GRP78 also serves as a critical ligand of the three receptors of the unfolded protein response (UPR) pathway, IRE1[…], PERK and ATF6, the dependency of the compounds' neuroprotective effects on UPR signaling was also tested.
The neuronal cell culture, MPP+ intoxication, immunostaining and analysis of neuroprotective effects of compounds were performed as in Example 1. PERK inhibitor GSK2606414 (2 µM, Sigma) or IRE1alpha inhibitor KIRA6 (2 µM, Sigma) were added to is the culture 1 h before addition of the test compounds.

[2] = In vivo pharmacokinetics after intravenous administration to rats; settings: rat, 5 mg/kg intravenous bolus injection, male Sprague-Dawley rats, plasma
Method: Test compounds were intravenously (i.v.) administered to male Spraque-Dawley rats (about six weeks old, n=3 per compound) at 5 mg/kg. Blood samples were collected from jugular vein through implanted in-dwelling catheters (250 μl blood) into labelled polypropylene tubes containing anticoagulant (heparin) at 2 min, 5 min, 15 min, 30 min, 1 h, 2 h and 4 h after compound administration and held on wet ice for a maximum of 30 minutes. The blood samples were centrifuged for plasma separation (4° C., 21100 G, 5 min). Tolbutamide 500 ng/ml with 10% TFA in acetonitrile or in MeCN was used as an internal standard solution. The standard samples were prepared into rat plasma by spiking the matrix into concentrations 2-10 000 ng/ml of the analyte, respectively, and otherwise treated as the samples. To 50 μl aliquots of sample plasma was added 200 μl of internal standard. Samples were mixed (150 rpm, 15 min) and centrifugated (3000 rpm, 15 min). The analytical method was optimized for reaction monitoring chromatographic (peak shape & retention) shifts and mass spectrometric properties (ionization efficiency, MS/MS detection). Supernatants were is analyzed by UHPLC-TOF mass spectrometry using electrospray ionization. […]

[3] = test system: dopaminergic TH-positive neurons injured with MPP+; test: Neuroprotective effect on dopaminergic TH-positive neurons injured with MPP+ (primary mesencephalic culture); assay type: cell-based, rat; settings: MPP+ 4 μM, 48 h; stated for 'most cases'
Method: Neuroprotective effects of compounds 1-20 (SEQ ID NO:s 1-20, parent and retro-inverso) were tested in an in vitro model in which primary cultures of rat embryonic mesencephalic neurons were stressed with MPP+, the active metabolite of neurotoxin 1-methyl-4-phenyl-1,2,3,6-tetrahydropyridine (MPTP). MPP+ kills dopaminergic (TH-positive) neurons via a variety of toxic mechanisms, including mitochondrial dysfunction, generation of peroxynitrite, oxidative stress, ER stress and induction of apoptosis.
Rat dopaminergic neurons were cultured as described by Visanji et al., 2008. Briefly, the midbrains obtained from 15-day-old rat embryos (Janvier, France) were dissected, and the ventral portion of the mesencephalic flexure, a region of the developing brain rich in dopaminergic neurons, was used for the cell preparations. The midbrain cells were dissociated by trypsinization for 20 min at 37° C. […] The reaction was stopped by adding Dulbecco's modified Eagle's medium (DMEM) containing DNAase I grade II (0.5 mg/mL) and 10% of fetal calf serum (FCS). Cells were then mechanically dissociated by 3 passages through a 10 ml pipette. Cells were then centrifuged at 180×g for 10 min at +4° C. on a layer of BSA (3.5%) in L15 medium. The cell pellets was re-suspended in a defined culture serum-free medium consisting of Neurobasal (Invitrogen) supplemented with B27 (2%), L-glutamine (2 mM) and 2% of PS solution and 10 ng/ml of Brain-derived neurotrophic factor (BDNF) and 1 ng/mL of Glial-Derived Neurotrophic Factor (GDNF). […] The cells were seeded at a density of 40 000 cells/well in 96 well-plates (pre-coated with poly-L-lysine) and maintained in a humidified incubator at 37° C. in 5% CO2/95% air atmosphere. Half of the medium was changed every 2 days with fresh medium. On 96-wells plates, only 60 wells are used. To avoid any edge effect, the first and last lines and columns were not be used for culture and were filled with sterile water.
On day 6 of culture, CDNF or the compounds 1-20 (SEQ ID NO:s 1-20, parent and retro-inverso), were dissolved in culture medium and then pre-incubated with mesencephalic neurons for 4 hours before the MPP+ application. Four hours after the preincubation of the compounds, MPP+ was added to a final concentration of 4 μM, diluted in control medium still in presence of compounds for 48 h.
48 hours after intoxication, the cells were fixed by a solution of 4% paraformaldehyde in PBS, pH 7.3 for 20 min at room temperature. The cells were washed twice in PBS, and then permeabilized and non-specific sites were blocked with a solution of PBS containing 0.1% of saponin and 1% FCS for 15 min at room temperature. Next, the cells were incubated with (a) a monoclonal antibody anti-Tyrosine Hydroxylase (TH) produced in mouse at dilution of 1:1 0000 and with (b) a polyclonal antibody anti-alpha-synuclein (aSyn) antibody produced in rabbit at dilution of 1:400 in PBS containing 1% FCS, 0.1% saponin, for 2 h at room temperature.
48 hours after intoxication, the cell culture supernatant was removed, and the cells fixed by a solution of 4% paraformaldehyde in PBS, pH 7.3 for 20 min at room temperature. The cells were washed twice in PBS, and then permeabilized and non-specific sites were blocked with a solution of PBS containing 0.1% of saponin and 1% FCS for 15 min at room temperature. Then, the cells were incubated with a) a monoclonal Anti-Tyrosine Hydroxylase (TH) antibody produced in mouse at dilution of 1:10000 in PBS containing 1% FCS, 0.1% saponin, for 2 hours at room temperature, and b) a polyclonal anti-postsynaptic density protein-95 (PSD-95) antibody produced in rabbit at dilution of 1:200 in PBS containing 1% FCS, 0.1% saponin, for 2 h at room temperature. This antibody stains specifically synapses.
For each condition, pictures representing the whole well area were automatically acquired using ImageXpress (Molecular device) at 10× (20 pictures, for TH and a-syn) or at 40× magnification (60 pictures, for TH and PSD-95). […]

[4] = In vitro metabolic stability in rat plasma; assay type: in vitro ADME; settings: 1 μM, 37° C., up to 120 min
Method: Metabolic stability of the retro-inverso and native control peptides was studied using rat plasma over the time period of 120 min, with initial test concentration of 1 μM. Samples were analysed using LC/QE-orbitrap-MS. Calculated half-life is based on compound disappearance in rat plasma.
The incubation was terminated by acetonitrile. […] Stock solutions was prepared using 50% DMSO, and the compounds were spiked 1/100 to incubation to have final DMSO content of 0.5%. […] For analysis of compounds 13-14 and 19-20 stock solutions were prepared with PBS, and samples were analyzed by UHPLC-ToF mass spectrometry. Enalapril 1 μM was used as a disappearance rate control.

[5] = target: nucleotide-binding domain of GRP78 (GRP78-NBD); test: Binding to GRP78-NBD Kd (μM)
Description: Table printed on a drawing sheet, FIG. 5B
Head of the field: Binding to GRP78-NBD Kd (μM)
GRP78-NBD is shown in a to translucent surface model along with its cartoon trace. The Cys-Cys bond in compound 14 (SEQ ID NO: 14) is shown in sticks.
The binding affinities are obtained by microscale thermophoresis-based cell free assay.
GSK2606414 was used to inhibit PERK signaling and KIRA6 to inhibit IRE1alpha signaling. * p<0.05, ** p<0.01, *** p<0.001, **** p<0.0001 one-way ANOVA test with post-hoc Fisher's LSD test for pairwise comparison vs MPP+ negative control. #p<0.05, ##p<0.01, ###p<0.001, ####p<0.0001 one-way ANOVA test with post-hoc Fisher's LSD test for pairwise comparison between effect of compound alone and its combination with UPR signal inhibitor.
Where the first naming reader finds the target: head: Binding to GRP78-NBD Kd (μM)

[6] = test system: rat hepatocytes; test: In vitro metabolic stability in rat hepatocytes; settings: 1 μM, 37° C., 0-60 min
[7] = In vitro metabolic stability in human plasma; assay type: in vitro ADME; settings: 1 μM, 37° C., up to 120 min
Method: Metabolic stability was studied using human plasma over the time period of 120 min, with initial test concentration of 1 μM. Samples were analysed using LC/QE-orbitrap-MS. Calculated half-life is based on compound disappearance in human plasma.
The incubation was terminated by acetonitrile. […] Propanthelin bromide 1 uM was used as a disappearance rate control. […] The in vitro half-life (t1/2) of is study compound is defined as: t1/2=ln2/k.

[8] = test system: human hepatocytes; test: In vitro metabolic stability in human hepatocytes; settings: 1 μM, 37° C., 0-60 min

stability in human plasma as compared to parent compound [7]	stability in human hepatocytes as compared to parent compound [8]	SMILES	neuroprotective effect in the presence of PERK inhibitor GSK2606414 ([1]; GSK2606414 added 1 h before test compound)	neuroprotective effect in the presence of IRE1alpha inhibitor KIRA6 ([1]; KIRA6 added 1 h before test compound)	AUC(0-inf) [2] [ng·h/mL]	MRT [2] [min]	Vd [2] [L/kg]	half-life [2] [min]	clearance ([2]; read-out: CI) [mL/min/kg]	potency of retro-inverso peptides relative to their parent compounds and to full-length CDNF protein [3]	stability in rat plasma as compared to parent compound [4]	Kd [5] [µM]	stability in rat hepatocytes as compared to parent compound [6]
–	–	C[C@H](O)[C@@H](NC(=O)[C@H]1CSSC[C@@H](NC(=O)[C@@H](C)NC(=O)[C@H](N)CCC(=O)O)C(=O)NCC(=O)N[C@H](CCCCN)C(=O)N1)C(=O)N[C@H](CCC(=O)O)C(=O)O [Compound 20, EACGKCTE]	abolished	abolished	18400	23.9	0.11	20.5	4.57	comparable	significantly improved stability	3.4	significantly improved stability
improved stability	significantly improved stability	C[C@H](O)[C@@H](NC(=O)[C@H]1CSSC[C@@H](NC(=O)[C@@H](C)NC(=O)[C@@H](CCC(=O)O)NC(=O)[C@@H](CCCCN)NC(=O)[C@H](N)CO)C(=O)NCC(=O)N[C@H](CCCCN)C(=O)N1)C(=O)N[C@H](CCC(=O)O)C(=O)NCC(=O)O [Compound 8, SKEACGKCTEG] (H-[dS][dK][dE][dA][dC]G[dK][dC][dT][dE]G-OH; disulfide 5-8; N-terminus and C-terminus assumed)	–	–	–	–	–	–	–	–	significantly improved stability	–	significantly improved stability
